Key:
Format in all cases: in vivo, C57BL6/J mice
[1] = Body weight change in mouse model of chronic restraint stress-based depression; conditions: for body weight change compared to the control group: 15 days, with 4 h daily restraint stress, FIG. 3
Experimental: (§1) Experimental animals, 8-9 week old male C57BL6/J mice, were provided by Hyochang Science in Daegu, Korea. Mice were provided with food and water ad libitum under diurnal lighting conditions (12 hours light, 12 hours dark). All animal experimental procedures were approved by the Institutional Animal Care and Use Committee (IACUC) of Pohang University of Science and Technology, and all experiments were conducted in compliance with the approved guidelines.
(§2) To induce mice of chronic restraint stress-based depression, 8-9 week old male C57BL6/J mice were housed in single cages one day before the experiment.
(§3) Thirty minutes after drug administration, the mice were induced to enter a 50 ml conical tube with a hole to allow breathing, and paper towels were placed to eliminate any empty space, ensuring the mice remained in restraint for 4 hours.

[2] = tested on: mouse model of chronic stress-induced depression; test: Tail suspension test (TST) in mouse model of chronic stress-induced depression; conditions: 28 days of restraint stress, i.p. daily; 6 minutes scored; FIG. 6
Experimental: as §1, §2
Thirty minutes after drug administration, the mice were induced to enter a 50 ml conical tube with a hole to allow breathing, and paper towels were placed to eliminate any empty space, ensuring the mice remained in restraint for 4 hours. […]
The activity of each mouse was recorded on video for 6 minutes. Up to four mice were tested at a time, and the immobile time of each mouse was measured for a total of 6 minutes. The movement status of the mouse was defined based on limb movement, with a state of immobility determined when all limbs remained motionless, and the immobile time was measured. […]

[3] = tested on: mouse model of chronic stress-induced depression; test: Sucrose preference test (SPT) in mouse model of chronic stress-induced depression; conditions: 28 days of restraint stress, i.p. daily; 2% sugar solution vs water, 3 hours; FIG. 7
Experimental: as §1, §2, §3
To perform a sugar preference test in a mouse model of chronic stress-induced depression, the mice were deprived of food and water for 18 hours on Day 1 of the experiment. On Days 2 and 3, the mice were provided with food, along with a 2% sugar solution and water simultaneously to allow exposure to the 2% sugar. […] To measure the intake of the mice, the weights of the solution and bottle were recorded before and after the 3-hour test.
Sucrose preference was calculated by the following expression: (Sugar solution intake/Total liquid intake)×100. […]

[4] = tested on: mouse model of chronic stress-induced depression; test: Forced swim test (FST) in mouse model of chronic stress-induced depression; conditions: i.p. daily, last 4 of 6 minutes scored
Experimental: as §1
To induce mice of chronic restraint stress-based depression, 8-9 week old male C57BL6/J mice were housed in single cages one day before the experiment. […]
To perform the forced swim test in a mouse model of chronic stress-induced depression, a cylindrical tank, with a diameter of 20 cm and a height of 30 cm, was filled with water at a temperature range of 25 °C to 28 °C until the water level reached 15 cm. Then, each mouse was carefully placed in water, and the mouse's activity was recorded on video for 6 minutes. […]
Of the total 6 minutes of recording, the first 2 minutes were excluded as habituation, and the immobile time of each mouse was measured for the next 4 minutes. Mouse movement was defined as any activity other than the minimal movements required to maintain body balance and to ensure the head remained above water, and the immobile time was measured. […]

CC(=O)N1N=C(c2ccc(N)cc2)c2cc3c(cc2C[C@H]1C)OCO3 [talampanel]
body weight change compared to the control group ([1]; 1 mg/kg i.p. daily): increase in body weight compared to the control group from Day 8 of administration
body weight change compared to the control group ([1]; 10 mg/kg i.p. daily): increase in body weight compared to the control group from Day 8 of administration
effect on weight loss due to stress and depression ([1]; i.p. daily, restraint stress, conclusion from body weight measurement): preventing weight loss caused by sustained stress
immobile time in tail suspension test compared to the control group [2]: significant reduction in immobile time
sucrose preference (sugar solution intake/total liquid intake) compared to the control group [3]: increased preference for the sugar solution compared to the control group
immobile time in forced swim test compared to the control group ([4]; 15 days of restraint stress, FIG. 4): significant reduction in immobile time
immobile time in forced swim test compared to the control group ([4]; 28 days of restraint stress, FIG. 5): significant reduction in immobile time
